Experiments:
Aß40 in CSF = assay: Reduction of Aß40 in CSF of Sprague Dawley rats after single dose intravenous and oral administration; type: in vivo
Protocol: This non-GLP study had two groups that received compound A1 by intravenous (IV) and oral (PO) administration with 3-6 male rats in each group. Rats received an IV dose of compound A1 at 1 mg/kg. Rats received a PO dose of compound A1 at 10 mg/kg. Plasma samples were collected pre-dose, 0.167 (10 min), 0.5, 1, 2, 4, 6, 8, 12, and 24 h post-dose. CSF samples were collected pre-dose, 0.5, 1, 2, 4, 8, 12, and 24 hours post-dose.

Aß40 = assay: Attenuating the amyloid β40 level in neurons differentiated from familial Alzheimer's disease patient iPSCs (ELISA); type: cell-based, human; settings: 10 μM test compound, FIG. 3
Protocol: Induced pluripotent stem cells from a familial Alzheimer's disease patient carrying a duplication of the amyloid precursor protein gene were differentiated to neurons using standard protocols. Israel et al., Nature 2012, 482, 216-220. Neural precursor cells were plated on 24-well plates and differentiated to neurons over three weeks. There was an exponential increase in the levels of Aß secreted in these cells starting on Day 4 in culture. […]

SMILES | reduction of Aß40 in CSF (Aß40 in CSF; single IV dose 1 mg/kg, rats, by 4 h post administration, FIG. 5) | time Aß40 levels in CSF remained lower than starting levels (Aß40 in CSF; single PO dose 10 mg/kg, male rats, FIG. 4) | decrease of Aß40 in CSF (Aß40 in CSF; single PO dose 10 mg/kg, male rats, by 2 h post administration, FIG. 4) | decrease of Aß40 relative to untreated cells (PBS) (Aß40; daily treatment, by Day 6 of treatment, iPSC-derived neurons) | reduction of Aß40 relative to untreated cells (PBS) (Aß40; within 24 h, iPSC-derived neurons (APP gene duplication)) [%]
Cc1ccc(C(F)(F)F)cc1CS(=O)(=O)c1cccc(C(=O)O)c1 [Compound A1, 3-((2-methyl-5-(trifluoromethyl)benzyl)sulfonyl)benzoic acid] | 20-60% | up to 24 h | up to 50% | – | –
COc1cc(CS(=O)(=O)c2cccc(C(=O)O)c2)cc(OC)c1 [Compound A2, 3-((3,5-dimethoxybenzyl)sulfonyl)benzoic acid] | – | – | – | greater than 30% | 20

Source: US12703679B2, “Sulfone compounds and pharmaceutical compositions thereof, and their therapeutic applications” (Cura Therapeutics, LLC, priority 2019, dated 2026)
